# Laboratory results published in patent US20210145850A1, “COMPOSITION, FOR OSTEOARTHRITIS TREATMENT, COMPRISING HYDROPHILIZED SULFASALAZINE AND HYALURONIC ACID AND METHOD FOR PREPARING SAME” (BMI KOREA CO., LTD, priority 2015, published 2021).
# How the values were obtained:
# [1] = as component of synovial fluid; cited from earlier work
# [2] = taken orally, maximum dose of 4 g/day; cited from earlier work
# [3] = tested on: osteoarthritis animal model induced by 1 mg MIA (Monosodium IodoAcetate) in synovium; assay: In vivo anti-osteoarthritis efficacy test, X-ray of joint region; set-up: species or system rat (Sprague Dawley)
# Method: FIG. 4 is X-ray radiographs of osteoarthritis animal model (rat) induced by treating 1 mg MIA in synovium at 8 weeks after administering the osteoarthritis composition comprising hydrophilized sulfasalazine and hyaluronic acid according to the present invention of 0 to 8 mM. After inducing an osteoarthritis animal model by treating 1 mg MIA (Monosodium IodoAcetate) to synovium of 8 week-old rat (Sprague Dawley), after 1 week, mixtures prepared in Example 1 was administered by intraarticular injection.
Compound,half life [1],blood concentration [2] [ng/mL],anti-osteoarthritis effect ([3]; less than 2 mM (0.08 w/v %)),"osteoarthritis treatment effect ([3]; low concentration, for example 1 mM)"
hyaluronic acid,more than 13 hours,–,–,–
O=C(O)c1cc(/N=N/c2ccc(S(=O)(=O)Nc3ccccn3)cc2)ccc1O [sulfasalazine],–,12000,anti-osteoarthritis effect could not be shown,could not show an effective level of osteoarthritis treatment effect
